Paper PMC8507260, “A2E-induced inflammation and angiogenesis in RPE cells in vitro are modulated by PPAR-α, -β/δ, -γ, and RXR antagonists and by norbixin” (Aging (Albany NY), 2021)
pIC50, pKd: −log10 of the molar value.

Assays:
[1] = biological target: T1, PPAR-α (Homo sapiens, UniProt Q07869); assay: Competition binding to PPAR-α against [3H]GW7647 (Eurofins Cerep); conditions: competition with [3H]GW7647
T1 construct: Eurofins Cerep (contract laboratory that ran the assay)
T1 sequence (Q07869 1-468): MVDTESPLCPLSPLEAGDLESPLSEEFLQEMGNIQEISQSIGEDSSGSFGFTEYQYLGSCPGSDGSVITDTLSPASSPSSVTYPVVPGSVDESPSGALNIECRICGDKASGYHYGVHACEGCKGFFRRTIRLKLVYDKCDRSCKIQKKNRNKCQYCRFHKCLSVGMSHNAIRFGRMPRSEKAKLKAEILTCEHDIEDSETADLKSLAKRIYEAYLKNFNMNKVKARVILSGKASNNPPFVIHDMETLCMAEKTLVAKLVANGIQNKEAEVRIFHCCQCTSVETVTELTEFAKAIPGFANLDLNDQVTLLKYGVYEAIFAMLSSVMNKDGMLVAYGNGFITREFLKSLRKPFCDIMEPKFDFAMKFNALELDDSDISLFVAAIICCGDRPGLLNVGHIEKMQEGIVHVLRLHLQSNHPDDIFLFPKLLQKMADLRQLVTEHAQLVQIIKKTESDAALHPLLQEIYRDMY
Text: The binding and activity of norbixin on PPARs remains controversial, thus, firstly, we performed competition experiments in vitro between norbixin and [^3H] GW7647, an agonist of PPAR-α, and [^3H] rosiglitazone, an agonist of PPAR-γ. […] Secondly, we tested whether norbixin could induce the transactivation of PPAR-α, -β/δ or -γ in the context of RPE cells in vitro by co-transfecting porcine RPE cells with a plasmid expressing each of the full-length PPAR isoforms and a plasmid expressing luciferase under the control of the PPAR response element. […] Then, we wanted to determine if norbixin could modulate the transactivation of PPAR isoforms induced by specific agonists.
Binding studies of A2E and norbixin to RXR-α and PPAR-α and γ were performed in vitro by an external laboratory (Eurofins Cerep, Celle L’Evescault, France) through competition experiments between A2E or norbixin and [^3H]9-cis-retinoic acid as the natural ligand of RXR-α, [^3H]GW7647 an agonist of PPAR-α and [^3H]Rosiglitazone an agonist of PPAR-γ.

[2] = biological target: T2, PPAR-γ (Homo sapiens, UniProt P37231); assay: Transactivation of over-expressed PPAR-γ, luciferase reporter in porcine RPE cells; format: cell-based, pig; set-up: a plasmid expressing each of the full-length PPAR isoforms; host or cells: primary porcine RPE cells; conditions: for inhibition of PPAR-γ transactivation induced by TGZ: NBX 20 μM; for transactivation of over-expressed PPAR-γ by the compound alone: vs DMSO control, A2E 20 μM, NBX increasing concentrations
T2 sequence (P37231 1-505): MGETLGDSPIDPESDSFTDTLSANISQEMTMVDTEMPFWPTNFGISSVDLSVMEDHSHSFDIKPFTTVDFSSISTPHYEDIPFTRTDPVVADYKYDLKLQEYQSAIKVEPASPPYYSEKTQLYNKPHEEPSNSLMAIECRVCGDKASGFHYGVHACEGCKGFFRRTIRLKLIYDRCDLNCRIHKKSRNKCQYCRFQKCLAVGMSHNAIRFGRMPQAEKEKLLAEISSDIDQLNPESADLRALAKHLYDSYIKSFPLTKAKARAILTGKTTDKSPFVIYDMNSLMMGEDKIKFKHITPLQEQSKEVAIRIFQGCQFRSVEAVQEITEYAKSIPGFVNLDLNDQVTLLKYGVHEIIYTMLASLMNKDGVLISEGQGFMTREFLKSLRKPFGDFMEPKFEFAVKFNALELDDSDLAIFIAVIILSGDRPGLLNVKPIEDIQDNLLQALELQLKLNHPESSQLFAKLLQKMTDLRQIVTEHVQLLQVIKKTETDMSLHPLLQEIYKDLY
Experimental: Then the effects of A2E on the endogenous PPAR transactivation in porcine RPE cells were investigated by means of a luciferase assay. […] The level of transactivation of PPAR-α, -β/δ, or -γ isoforms by A2E was determined by co-transfection of porcine RPE cells with a plasmid expressing each of the full-length PPAR isoforms and a plasmid expressing luciferase under the control of the PPAR response element. […] All usual chemicals, primers, and HX531 were from Sigma (St. Louis, MO, USA). Reagents for cell culture, transfection and quantitative RT-PCR were from Thermo Fisher Scientific (Waltham, MA, USA). RNA extraction NucleoSpin® RNA kit was from Macherey Nagel (Düren, Germany). ECL prime and PVDF membrane were from Amersham GE Healthcare (Buckinghamshire, UK). Primary antibodies against the following proteins were used: GAPDH (Santa Cruz Biotechnology, Inc, Dallas, TX, USA); pAKT, AKT, pERK and ERK (Cell Signaling, Danvers, MA, USA). Secondary antibodies were from Jackson ImmunoResearch (Cambridgeshire, UK). […] Cignal Pathway Reporter Assay Kits were from QIAGEN (Frederick, MD, USA). The Dual-Luciferase Reporter Assay System was purchased from Promega (Madison, WI, USA). pcDNA 3.1 (+)-PPARα and pcDNA 3.1 (+)-PPARβ/δ (pig sequence) were purchased from Genscript (Piscataway, NJ, USA). pCMV6-XL4-PPARγ (human sequence) was purchased from Origene (Rockville, MD, USA).
After one week in culture, cells were trypsinized and transferred to a 96-well plate at a density of 6 × 10^4 cells/cm^2 in DMEM2%FCS. The next day, cells were transfected using the Cignal Reporter Assay Kits for PPAR, RXR, AP-1 and NF-κB, according to the manufacturer’s specifications. To measure the specific activation of PPAR isoforms, cells were also co-transfected with PPAR-α, PPAR-β/δ or PPAR-γ expression vectors. Transfection was performed with Lipofectamine and Plus Reagent in serum-free medium. 3 h after the transfection, the medium was replaced and treatments with the molecules to assay were performed. Luciferase activity was measured the next day using the Dual-Luciferase Reporter Assay System. The measurements were performed with a luminometer (Infinite M1000 from Tecan, Mannedorf, Switzerland). Firefly: Renilla activity ratios were calculated for each condition and ratios from transcription factor-responsive reporter transfections were divided by ratios from negative control transfections to obtain relative luciferase unit, as described by the manufacturer. At least 3 independent transfections were performed in triplicate for each condition.

| SMILES | pIC50 [1] | pKd [1] | inhibition of PPAR-γ transactivation induced by TGZ ([2]; 1 μM of TGZ) | effect on over-expressed PPAR-γ transactivation induced by A2E ([2]; A2E 20 μM + NBX 20 μM) | inhibition of PPAR-γ transactivation induced by TGZ ([2]; TGZ 10 μM) | transactivation of over-expressed PPAR-γ by the compound alone [2] |
| --- | --- | --- | --- | --- | --- | --- |
| CC(/C=C/C=C(C)/C=C/C(=O)O)=C\C=C\C=C(C)\C=C\C=C(C)\C=C\C(=O)O (stereo in doubt) [norbixin, 9’-cis-norbixin] | 4.78 | 4.82 | partially inhibited | fully abolished | this effect was lost | did not demonstrate any transactivation activity |
| CC(C=CC1=C(C)CCCC1(C)C)=CC=CC(C)=Cc1cc(C=CC=C(C)C=CC2=C(C)CCCC2(C)C)cc[n+]1CCO [A2E, N-retinylidene-N-retinylethanolamine] | 4.37 | 4.39 |  |  |  | induced the transactivation |
